Here are results for two molecules from patent US11453633B2, “Production method for crystal of reduced coenzyme Q10 having excellent stability” (KANEKA CORPORATION, priority 2018, dated 2022).

The conditions of data set [1]: compared with the conventional reduced coenzyme Q10 Form I crystal; cited from earlier work.
A short description of data set [2]: Reduced coenzyme Q10 concentration dissolved in the liquid phase of the crystallization mixture, by HPLC (Example 11). It is filed as physicochemical. The following applies: 99.5% ethanol. How it is done:
The inside of a 500 mL separable flask (made of borosilicate glass) was replaced with nitrogen, and 40.0 g of reduced coenzyme Q10 and 360 g of 99.5% ethanol were then added thereto (reduced coenzyme Q10 concentration: 10 wt. %). Thereafter, the obtained raw material mixture was warmed to 42° C. while stirring with a stirring blade (power required for stirring: 0.1 kw/m^3) to obtain a homogeneous solution. This solution was cooled to 35° C., and thereafter, 0.4 g (1 wt. %) of reduced coenzyme Q10 crystals comprising reduced coenzyme Q10 Form II crystals were added as seed crystals to the solution.
The mixture obtained after the addition of the seed crystals was kept at 35° C. for 15 hours to precipitate crystals. Thereafter, the mixture was cooled to 25° C. at a constant cooling rate of −2° C./hour over 5 hours, and was then cooled to 10° C. at a constant cooling rate of −10° C./hour over 1.5 hours, to further precipitate crystals. After the temperature had reached 10° C., the mixture was filtered for solid-liquid separation. The obtained crystal was dried under reduced pressure at 35° C. for 10 hours to obtain a reduced coenzyme Q10 Form II crystal (Form II rate: 100%; recovery rate: 97%).
In the present experiment, the liquid phase of the mixture was sampled immediately before addition of the seed crystals (at 0 hour), and then at 3 hours, 6 hours, 9 hours, 12 hours, 15 hours (so far, at 35° C.), 17.5 hours (30° C.), 20 hours (25° C.), 20.5 hours (20° C.), and 21.5 hours (10° C.) after the addition of the seed crystals. The concentration (wt. %) of reduced coenzyme Q10 dissolved in the liquid phase sample was measured according to high performance liquid chromatography.
Conditions for the high performance liquid chromatography, by which the reduced coenzyme Q10 concentration was measured, are shown below.
Column: SYMMETRY C18 (manufactured by Waters); 250 mm (length), 4.6 mm (inner diameter)
Mobile phase: C2H5OH:CH3OH=4:3 (v:v)
Detection wavelength: 210 nm
Retention time of reduced coenzyme Q10: 9.1 min.

For data set [3] the following is noted: compared with oxidized coenzyme Q10; cited from earlier work.

As to `COc1c(O)c(C)c(C/C=C(\C)CC/C=C(\C)CC/C=C(\C)CC/C=C(\C)CC/C=C(\C)CC/C=C(\C)CC/C=C(\C)CC/C=C(\C)CC/C=C(\C)CCC=C(C)C)c(O)c1OC` [reduced coenzyme Q10 Form II crystal, reduced coenzyme Q10], the “stability of the crystal form” value in data set [1] is on record as “much more stable”.
Take `COc1c(O)c(C)c(C/C=C(\C)CC/C=C(\C)CC/C=C(\C)CC/C=C(\C)CC/C=C(\C)CC/C=C(\C)CC/C=C(\C)CC/C=C(\C)CC/C=C(\C)CCC=C(C)C)c(O)c1OC` [reduced coenzyme Q10]: the “Reduced coenzyme Q10 concentration” value is 10.0 wt % in data set [2] (crystallization time 0 h (immediately before addition of the seed crystals), 35° C.); 9.9 wt % in data set [2] (crystallization time 3 h, 35° C.); 9.6 wt % in data set [2] (crystallization time 6 h, 35° C.); 9.2 wt % in data set [2] (crystallization time 9 h, 35° C.); 8.5 wt % in data set [2] (crystallization time 12 h, 35° C.); 7.2 wt % in data set [2] (crystallization time 15 h, 35° C.). Also, the “Reduced coenzyme Q10 concentration” value in data set [2] (crystallization time 17.5 h, 30° C.) is on record as 3.1 wt %; in data set [2] (crystallization time 20 h, 25° C.), 1.5 wt %; in data set [2] (crystallization time 20.5 h, 20° C.), 0.8 wt %; in data set [2] (crystallization time 21.5 h, 10° C.), 0.3 wt %. Also, in data set [3], the oral absorbability entry is “higher oral absorbability than that of oxidized coenzyme Q10”.
